PubChem BioAssay AID720547 (The Scripps Research Institute Molecular Screening Center, 2013)
“And” between values parts separate entries of the source, which are not always exact repeats. Equal entries are not always repeated. The source made the active and inactive calls.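 Rule for the calls: active = compound flagged as a likely artifact in this counterscreen, with IC50 of 10 µM or lower; inactive = IC50 above 10 µM.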

System: HEK293 Gal4-VP16 luciferase reporter counterscreen, luminescence
Test: VP16-driven transactivation reporter suppression potency – cell-based, luminescence, HEK293, counter-screen for COUP-TFII inhibitor project, dose response (AID 720547);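 note: potency for lowering the luciferase signal driven by Gal4-VP16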

SMILES | IC50
CC(C)(C)c1ccc(CSc2cnn(C(C)(C)C)c(=O)c2Cl)cc1 | > 85.4 µM (inactive)
O=c1c2ccccc2oc2cc(C#CC3(O)CCCCC3)ccc12 | 56.2 µM (inactive)
COc1cc(N(C)C)ccc1C=c1c2ccccc2n2c1cc(-c1ccccc1)[n+]2C | 26.3 µM (inactive)
COc1cc(NC(=O)COc2cc(O)c3c(c2)OC(C)(C)CC3=O)cc(OC)c1OC | > 28.5 µM (inactive)
O=C(CSc1nnc(-c2cccnc2)s1)Nc1ccnc2ccccc12 | > 85.4 µM (inactive)
CCOCCCNC(=S)N1CCN(c2nc(-c3ccc(F)cc3)cs2)CC1 | 45.1 µM (inactive)
Cc1cc(NC2CCCC2)n2ncc(-c3ccccc3)c2n1 | 62.9 µM (inactive)
CCC(C)C(NC(=O)CCCNC(=O)CCC(=O)OC1O[C@H]2OC3(C)CC[C@H]4[C@H](C)CCC(C1C)C24OO3)C(=O)O (stereo partly specified) | > 85.4 µM (inactive)
Cc1nn(C)c(C)c1/C=C/C(=O)c1ccc(Cl)cc1Cl | > 85.4 µM (inactive)
Cc1c(C)n(Cc2ccccc2)c2ncnc(Cl)c12 | > 85.4 µM (inactive)
OC[C@@H]1CN(Cc2ccc(-c3ccccc3)cc2)C[C@H](n2cnc3c(NC4CCCC4)ncnc32)O1 | 53.4 µM (inactive)
Cc1nn(C)c(C)c1CN(Cc1nc(CCC(C)C)no1)C(C)C | > 85.4 µM (inactive)
CC(=O)c1cccc(NS(=O)(=O)c2ccc(-c3cnc(C4CC4)o3)cc2)c1 | > 85.4 µM (inactive)
CC[C@@H](O)C[C@H]1CCC[C@@]2(C[C@@H]3OC(=O)/C=C/[C@@](C)(O)[C@@H](O)[C@H](C)[C@@H](O)[C@H](OC4CCC(N(C)C)C(C)O4)[C@@H](O)[C@](C)(O)CCCCC/C=C/[C@@H]4CC(C)(C)O[C@@]4(O)C[C@H](O2)[C@H]3C)O1 (stereo partly specified) | 37 µM (inactive)
COc1ccccc1-n1c(-c2ccccc2)c[n+]2c1CCc1ccccc1-2 | > 85.4 µM (inactive)
CCN1/C(=C\c2ccc3ccccc3[n+]2CC)Sc2cc(C)ccc21 | 53.9 µM (inactive)
Cn1c2ccccc2c(=O)c2cc(C#CC3(O)CCCCC3)ccc21 | > 85.4 µM (inactive)
O=C(c1cc(COc2cccc3cnccc23)on1)N1CCCC(CCCO)C1 (stereo unspecified) | > 85.4 µM (inactive)
NC(=O)c1nnn(Cc2cc(Cl)c(C(=O)c3ccc(Cl)cc3)c(Cl)c2)c1N | > 85.4 µM (inactive)
Cc1sc(NC(=O)CN2CCOCC2)nc1-c1ccc2c(c1)CCN2S(=O)(=O)c1ccccc1 | > 85.4 µM (inactive)
COc1ccc(CCNc2ncnc3c2oc2ccccc23)cc1OC | 56.8 µM (inactive)
CCCCCCn1c(NCC)nc2c1c(=O)n(C)c(=O)n2C | > 85.4 µM (inactive)
Cc1ccccc1Cn1c(C)nc2ccccc21 | > 85.4 µM (inactive)

SMILES | IC50
Cc1c(Cl)cccc1NC(=O)N1CCCN(c2nc(-c3ccccc3)ns2)CC1 | > 85.4 µM (inactive)
Cc1ccnc(Nc2nc(-c3sc(C)nc3C)cs2)c1 | > 85.3 µM (inactive)
COc1ccc(-c2ccc3oc(-c4ccc(OC)cc4)c(C#CCO)c3c2)cc1 | > 85.4 µM (inactive)
O=C(CSc1nnc(Cn2nnc3ccccc32)o1)N(Cc1ccc(Cl)cc1)c1ccccc1 | > 85.4 µM (inactive)
Cc1ccc(-n2nc3c(=O)n(C(C)C(=O)NCCC4=CCCCC4)nc(C)c3c2C)cc1 (stereo unspecified) | > 28.5 µM (inactive)
CC(C)(C)c1ccc(-c2cc(-c3ccccc3O)[nH]n2)cc1 | 36.6 µM (inactive)
Cc1cc(N2CCN(c3nc4ccccc4s3)CC2)n2ncnc2n1 | > 85.4 µM (inactive)
CCC1CCCCN1C(=O)c1cc(COc2ccc3ncccc3c2)on1 (stereo unspecified) | > 85.4 µM (inactive)
COc1ccc(CCNC(=O)C(C)n2nc(C)c3c(C)n(-c4ccc(C)cc4)nc3c2=O)c(OC)c1 (stereo unspecified) | > 28.5 µM (inactive)
CCN(CC)S(=O)(=O)c1ccc(/C=C/C(=O)Nc2ccc(Br)cc2F)cc1 | > 85.4 µM (inactive)
Cc1cccc(Cl)c1NC(=O)N1CCCN(c2nc3ccc(Cl)cc3s2)CC1 | > 85.4 µM (inactive)
COC(=O)c1ccc2nc(Nc3nc4ccc(F)cc4s3)sc2c1 | > 85.4 µM (inactive)
CC(=O)N[C@@H](C)c1nc2ccccc2n1CCCN1CCN(c2nc(-c3ccc(C)cc3)cs2)CC1 | 57 µM (inactive)
O=C(NC(Nc1nc2ccc([N+](=O)[O-])cc2s1)(C(F)(F)F)C(F)(F)F)c1cccnc1 | > 85.4 µM (inactive)
Cc1cccc(Nc2nc(NCc3ccco3)c3ccccc3n2)c1 | 53 µM (inactive)
O=C(NCC(c1ccco1)N1CCCC1)c1ccc(Cl)c(S(=O)(=O)N2CCc3ccccc32)c1 (stereo unspecified) | > 28.5 µM (inactive)
CCOc1ccc(S(=O)(=O)NCc2ccncc2)cc1 | > 85.4 µM (inactive)
CC(C)(C)c1ccc(-c2nnc3sc(-c4ccccn4)nn23)cc1 | > 85.4 µM (inactive)
CCCc1cc(=O)n2nc(N3CCC(C(=O)N4CCN(c5ccc(OC)cc5)CC4)CC3)sc2n1 | > 85.4 µM (inactive)
COc1ccc(-c2csc(NC(=O)C3CCN(c4ncnc5sc(C)c(C)c45)CC3)n2)cc1OC | 25.7 µM (inactive)
CCN(CC)S(=O)(=O)c1cccc(NC(=O)COC(=O)c2[nH]c(C)c(C(C)=O)c2C)c1 | > 28.5 µM (inactive)
COc1ccc(NS(=O)(=O)c2ccc(-c3coc(C)n3)cc2)cc1OC | > 85.4 µM (inactive)
Cn1nc(CC(=O)Nc2ccc(N3CCN(C(=O)OC(C)(C)C)CC3)cc2)c2ccccc2c1=O | 81.2 µM (inactive)

SMILES | IC50
Cc1cc(/C=C2/SC(=S)N(c3cccc(Cl)c3)C2=O)c(C)n1-c1cccnc1 | > 85.4 µM (inactive)
CCCc1ccc(C(=O)O/N=C(\N)c2ccccn2)cc1 | 36.7 µM (inactive)
Oc1ccc(-c2n[nH]c(C(F)(F)F)c2-c2ccccc2)c(O)c1 | > 85.4 µM (inactive)
CCOc1cccc(/C=N/NC(=S)Nc2ccccc2[N+](=O)[O-])c1O | 20.4 µM (inactive)
Cn1nccc1C(=O)NC1CCCc2c1cnn2-c1ccc(C(C)(C)C)cc1 (stereo unspecified) | > 85.4 µM (inactive)
CCOC(=O)c1c(C)[nH]c(C(=O)OCC(=O)Nc2sccc2C(N)=O)c1C | 29.8 µM (inactive)
Oc1ccc(-[n+]2c(-c3ccccc3)cc(-c3ccccc3)cc2-c2ccccc2)cc1 | 12.6 µM (inactive)
COCCn1c(C)c(C)c2c(NCCc3ccccc3)ncnc21 | > 85.3 µM (inactive)
COc1ccc(CNc2ncnc3ccccc23)cc1 | > 85.4 µM (inactive)
Cc1cc2c(=Cc3ccc(N(C)C)cc3)c3ccccc3n2[n+]1C | 36.5 µM (inactive)
Clc1ccc(OCCN2CCN(c3ncnc4sccc34)CC2)cc1 | > 85.5 µM (inactive)
Cc1nc2c(-c3ccccc3)cnn2c(N)c1-c1ccccc1 | 59.7 µM (inactive)
NC(=O)[C@H]1CC2(CC(c3cccc(NC(=O)COc4ccc(Cl)cc4)c3)=NO2)CN1C(=O)Cc1ccc([N+](=O)[O-])cc1 (stereo partly specified) | > 85.5 µM (inactive)
CCN(CC)C(=O)c1oc2ccc(S(=O)(=O)N3CC(C)CC(C)C3)cc2c1C (stereo unspecified) | 72.3 µM (inactive)
CCc1ccc(CN(C)C(=O)c2cc(COc3cccc4cnccc34)on2)cc1 | > 85.4 µM (inactive)
COc1cccc(CN(C)C(=O)c2ccc(OCC(=O)Nc3cccc(C(F)(F)F)c3)c(OC)c2)c1 | > 28.5 µM (inactive)
Cc1nc2ccccc2n1Cc1ccc(Br)cc1 | > 85.3 µM (inactive)
Clc1ccc(-n2ncc3c(NCCN4CCOCC4)ncnc32)cc1 | > 85.4 µM (inactive)
CCCCn1c2c(c(=N)c3c1CCC3)CCC2 | > 85.4 µM (inactive)
O=C(c1ccccc1)C1CCN(c2ncnc3sccc23)CC1 | > 85.5 µM (inactive)
c1ccc(CNc2ncnc3ccccc23)cc1 | > 85.4 µM (inactive) and > 85.3 µM (inactive)
COc1ccc(CCNc2ncnc3sccc23)cc1OC | > 85.4 µM (inactive)
COC(=O)C1=C(c2ccc(-c3ccccc3)c(F)c2)C[C@@H]2CC[C@H]1N2C(=O)N1CCCC1 | > 85.4 µM (inactive)

SMILES | IC50
O=C(CSc1cc(Cl)ccc1Cl)N/N=C/c1ccc[nH]1 | > 85.4 µM (inactive)
CC1CC(C)(O)CC(C(O)CC2CC(=O)NC(=O)C2)C1=O (stereo unspecified) | > 85.3 µM (inactive)
Cc1cc(C)c(CN2CCN(C(=O)Cn3cnc4c(OCc5ccccc5)ncnc43)CC2)c(C)c1 | > 85.3 µM (inactive)
Cc1cccc2cc(-c3ccccc3)c(-c3ccccc3)c[n+]12 | > 85.4 µM (inactive)
COc1ccc(N2CCN(c3ncnc4c3[nH]c3ccccc34)CC2)cc1 | > 85.4 µM (inactive)
O=C(NCCc1cn2ccccc2n1)c1cc(COc2ccc3ncccc3c2)on1 | 31.1 µM (inactive)
Cc1cc(C(=O)NC2CCCc3c2cnn3-c2cccc(C)c2C)n(C)n1 (stereo unspecified) | > 85.4 µM (inactive)
CCSc1nc2ccccc2n1C(=O)/C=C/c1ccc(OC)c(OC)c1 | 19.4 µM (inactive)
CC(C)CNc1ncnc2c1ncn2[C@H]1CN(Cc2ccc(-c3ccccc3)cc2)C[C@@H](CO)O1 | 61.9 µM (inactive)
C=CC[n+]1c(-c2ccc(Cl)cc2Cl)csc1Nc1c(C)n(C)n(-c2ccccc2)c1=O | > 85.4 µM (inactive)
OC[C@@H]1CN(Cc2ccc(-c3ccccc3)cc2)C[C@H](n2cnc3c(NCc4ccncc4)ncnc32)O1 | 59.3 µM (inactive)
NC(=O)c1ccsc1NC(=O)COC(=O)Cc1cccc2ccccc12 | > 85.4 µM (inactive)
CC(C)OCCCNc1ncnc2c1[nH]c1ccc(F)cc12 | > 85.4 µM (inactive)
Cc1ccc(Cn2ncc3c(N4CCN(Cc5ccc(Cl)cc5)CC4)ncnc32)cc1 | > 85.4 µM (inactive)
COc1ccccc1-c1cc2nc(-c3ccccc3)cc(N3CCN(C(=O)c4ccco4)CC3)n2n1 | 10.3 µM (inactive)
CC(C)CC(NC(=O)CCCNC(=O)CCC(=O)OC1O[C@H]2OC3(C)CC[C@H]4[C@H](C)CCC(C1C)C24OO3)C(=O)O (stereo partly specified) | > 85.4 µM (inactive)
OC[C@@H]1CN(Cc2ccc(-c3ccccc3)cc2)C[C@H](n2cnc3c(NCc4ccc(F)cc4)ncnc32)O1 | 83.4 µM (inactive)
CC(=O)Nc1ccc(SCC(=O)c2cc(C)n(Cc3cccs3)c2C)cc1 | > 85.4 µM (inactive)
Cc1[nH]nc(C(F)(F)F)c1N=NN1CCOCC1 | 51.6 µM (inactive)
Fc1ccc2[nH]c3c(N4CCc5ccccc5C4)ncnc3c2c1 | 77.5 µM (inactive)
Oc1ccc(Oc2ccc3c(C(F)(F)F)cc(C(F)(F)F)nc3n2)cc1 | 37 µM (inactive)
CC(Nc1ncnc2ccccc12)c1ccccc1 (stereo unspecified) | > 85.5 µM (inactive)
